What was measured:
Format in all cases: in vivo
[1] = system: Mouse models of spontaneous cancer (CBA/J); assay: Hair loss and whisker loss as side effect of adriamycin, Test Example 4; conditions: ADM 0.2 mg/kg i.p. in courses; CPL 0.01% in feed; n = 10 (ADM), 9 (ADM and CPL), 10 (CPL)
Source text: Based on the results attained in Test Examples 2 and 3, hair loss and whisker loss were observed under overcrowded conditions or in the presence of a dominant male. […] Accordingly, only the cage in which the dominant male was not present among the group that had been raised under normal conditions was selected, and the effects of CPL for alleviating side effects of an antitumor agent were examined.
Thereafter, they were divided into: the group to which an antitumor agent (adriamycin, ADM) had been administered; the group to which CPL-containing feeds had been administered; and the group to which ADM had been administered in combination with CPL, and these groups of mice were raised. The daily dosage of ADM was 0.2 mg/kg per mouse, and administration was made intraperitoneally once a day for 3 consecutive days, followed by drug withdrawal for 11 days. This procedure was designated as constituting a single course and then continued. CPL was mixed with feeds (CE-2) in amounts of 0.01% thereof.

[2] = system: alveolar epithelial hyperplasia in male mouse models (CBA/J); assay: Inhibition of alveolar epithelial hyperplasia, Test Example 1
Experimental: (§1) Male mouse models (CBA/J) of spontaneous alveolar epithelial hyperplasia were employed as test animals. These mice develop alveolar epithelial hyperplasia 12 to 15 weeks after birth. Accordingly, they were raised with normal feeds until 19 weeks after birth. […] CPL was mixed with powder feeds (CE-2). The daily dosage of adriamycin (ADM) was 0.1 mg/kg per mouse, and administration was made intraperitoneally once a day for three consecutive days, followed by drug withdrawal for 11 days. This procedure was designated as constituting a single course, and eight courses thereof were conducted.
At the time of ADM administration, the body weights of mice were measured and their general conditions were observed. In particular, the occurrence of hair loss was carefully observed. The mice were subjected to autopsy 36 weeks or 37 weeks after birth (with an administration duration of 17 weeks or 18 weeks), and samples were recovered. Tissue blocks were obtained from 3 sites each of the extirpated right and left lungs (6 sites in total), the recovered tissue fragments were fixed, fragments embedded in hydrophilic methacrylate resins were subjected to H-E staining, and the ranges of alveolar epithelial hyperplasia were compared. […]

[3] = system: Male mouse models (CBA/J) of spontaneous alveolar epithelial hyperplasia; assay: Hair loss as side effect of adriamycin, Test Example 1; conditions: ADM 0.1 mg/kg i.p., eight courses
Experimental: as §1
At the time of ADM administration, the body weights of mice were measured and their general conditions were observed. In particular, the occurrence of hair loss was carefully observed. The mice were subjected to autopsy 36 weeks or 37 weeks after birth (with an administration duration of 17 weeks or 18 weeks), and samples were recovered. Tissue blocks were obtained from 3 sites each of the extirpated right and left lungs (6 sites in total), the recovered tissue fragments were fixed, fragments embedded in hydrophilic methacrylate resins were subjected to H-E staining, and the ranges of alveolar epithelial hyperplasia were compared.

[4] = CPL 0.01% in feed, group sizes n = 7 (CPL), 8 (CPL and ADM), 10 (ADM)

COc1cccc2c1C(=O)c1c(O)c3c(c(O)c1C2=O)C[C@@](O)(C(=O)CO)C[C@@H]3O[C@H]1C[C@H](N)[C@H](O)[C@H](C)O1 [ADM, adriamycin]
Hair loss and whisker loss (number of individuals) [1]: 4
Individuals in which sections with rates of hyperplasia development of 50% or more were observed ([2]; FIG. 9, as in the group that did not experience administration): all individuals
Sections with rates of hyperplasia development of less than 10%, share of the whole ([2]; lung tissue sections, 6 sites per individual, autopsy 36 or 37 weeks after birth, FIG. 8): 8.3%
Individuals with hair loss around the eyeballs and the skin of the upper lips ([3]; 9 out of 10 cases): 90%
Number of individuals undergoing hair loss around the eyeballs [3, 4]: 9
Number of individuals undergoing hair loss at the upper lip [3, 4]: 9
